SMILES strings stand for the structures.

The term melting point denotes the temperature of the solid-liquid transition. On to `Cn1ncc(/C=C/C(=O)Nc2ccc(Cn3nccn3)cc2)c1-c1ccc(F)cc1` [Example 196, (2E)-3-[5-(4-Fluorophenyl)-1-methyl-1H-pyrazol-4-yl]-N-[4-(2H-1,2,3-triazol-2-ylmethyl)phenyl]acrylamide], for which the melting point is 178 to 179 °C. Compound `Cn1ncc(/C=C/C(=O)Nc2ccc(CN3C(=O)CNC3=O)cc2)c1-c1ccc(F)cc1` [Example 157, (2E)-N-{4-[(2,5-Dioxo-1-imidazolidinyl)methyl]phenyl}-3-[5-(4-fluorophenyl)-1-methyl-1H-pyrazol-4-yl]acrylamide] showed a melting point of 249 to 250 °C. In the case of `Cc1nnc(COc2ccc(NC(=O)/C=C/c3cnn(C)c3-c3ccc(F)cc3)cc2)o1` [Example 97, (2E)-3-[5-(4-Fluorophenyl)-1-methyl-1H-pyrazol-4-yl]-N-{4-[(5-methyl-1,3,4-oxadiazol-2-yl)methoxy]phenyl}acrylamide] it was 117 to 118 °C; in that of `Cn1nnnc1S(=O)(=O)Cc1ccc(NC(=O)/C=C/c2cnn(C)c2-c2ccc(F)cc2)cc1` [Example 226, (2E)-3-(5-(4-Fluorophenyl)-1-methyl-1H-pyrazol-4-yl]-N-(4-{[(1-methyl-1H-tetrazol-5-yl)sulfonyl]methyl}phenyl)acrylamide], 224 to 225 °C. For `Cn1ncc(/C=C/C(=O)Nc2ccc(OCc3cscn3)cc2)c1-c1ccc(F)cc1` [Example 92, (2E)-3-[5-(4-Fluorophenyl)-1-methyl-1H-pyrazol-4-yl]-N-[4-(1,3-thiazol-4-ylmethoxy)phenyl]acrylamide], the melting point was 171 to 172 °C.

The compound `CC(=O)Nc1ccc(NC(=O)/C=C/c2cnn(C)c2-c2ccc(F)cc2)cc1` [Example 166, (2E)-N-[4-(Acetylamino)phenyl]-3-[5-(4-fluorophenyl)-1-methyl-1H-pyrazol-4-yl]acrylamide] gave a melting point of 281 to 282 °C. In the case of `Cn1ncc(/C=C/C(=O)Nc2ccc(C[S+]([O-])c3ccccc3)cc2)c1-c1ccc(F)cc1` (stereo not drawn) [Example 219, (2E)-3-[5-(4-Fluorophenyl)-1-methyl-1H-pyrazol-4-yl]-N-{4-[(phenylsulfinyl)methyl]phenyl}acrylamide] it was 236 to 237 °C; in that of `COP(=O)(Cc1ccc(NC(=O)/C=C/c2cnn(C)c2-c2ccccc2)cc1)OC`, 219 to 220 °C.

The compound `Cn1ncc(/C=C/C(=O)Nc2ccc(Cn3ccnn3)cc2)c1-c1ccc(F)cc1` [Example 194, (2E)-3-[5-(4-Fluorophenyl)-1-methyl-1H-pyrazol-4-yl]-N-[4-(1H-1,2,3-triazol-1-ylmethyl)phenyl]acrylamide] registered a melting point of 252 to 253 °C.

`CCOP(=O)(Cc1ccc(NC(=O)/C=C/c2c(C)nn(C)c2-c2ccc(F)cc2)cc1)OCC` came in with a melting point of 159 to 160 °C. `Cc1cn(Cc2ccc(NC(=O)/C=C/c3cnn(C)c3-c3ccc(F)cc3)cc2)cn1` [Example 202, (2E)-3-[5-(4-Fluorophenyl)-1-methyl-1H-pyrazol-4-yl]-N-{4-[(4-methyl-1H-imidazol-1-yl)methyl]phenyl}acrylamide] returned a melting point of 202 to 203 °C.

Regarding `Cc1nc(Cc2ccc(NC(=O)/C=C/c3cnn(C)c3-c3ccc(F)cc3)cc2)no1` [Example 116, (2E)-3-[5-(4-Fluorophenyl)-1-methyl-1H-pyrazol-4-yl]-N-{4-[(5-methyl-1,2,4-oxadiazol-3-yl)methyl]phenyl}acrylamide], the melting point was in the range of 183 to 184 °C. In the case of `CCSCc1ccc(NC(=O)/C=C/c2cnn(C)c2-c2ccc(F)cc2)cc1` [Example 210, (2E)-N-{4-[(Ethylthio)methyl]phenyl}-3-[5-(4-fluorophenyl)-1-methyl-1H-pyrazol-4-yl]acrylamide] it was 157 to 158 °C. Compound `CCc1nc(Cc2ccc(NC(=O)/C=C/c3cnn(C)c3-c3ccc(F)cc3)cc2)no1` [Example 118, (2E)-N-{4-[(5-Ethyl-1,2,4-oxadiazol-3-yl)methyl]phenyl}-3-[5-(4-fluorophenyl)-1-methyl-1H-pyrazol-4-yl]acrylamide] showed a melting point of 150 to 152 °C. For the compound `COP(=O)(Cc1ccc(NC(=O)/C=C/c2cnn(C)c2-c2ccc(C(F)(F)F)cc2)cc1)OC`, the melting point is 212 to 213 °C. `Cn1ncc(/C=C/C(=O)Nc2ccc(Cn3nnc4ccccc43)cc2)c1-c1ccc(F)cc1` [Example 177, (2E)-N-[4-(1H-1,2,3-Benzotriazol-1-ylmethyl)phenyl]-3-[5-(4-fluorophenyl)-1-methyl-1H-pyrazol-4-yl]acrylamide] registered a melting point of 226 to 227 °C. In turn, `Cn1ncc(/C=C/C(=O)Nc2ccc(Cn3cc4ccccc4n3)cc2)c1-c1ccc(F)cc1` [Example 178, (2E)-3-[5-(4-Fluorophenyl)-1-methyl-1H-pyrazol-4-yl]-N-[4-(2H-indazol-2-ylmethyl)phenyl]acrylamide] showed a melting point of 231 to 232 °C. `Cc1nc(Cc2ccc(NC(=O)/C=C/c3cnn(C)c3-c3ccc(F)cc3)cc2)sc1C` [Example 123, (2E)-N-{4-[(4,5-Dimethyl-1,3-thiazol-2-yl)methyl]phenyl}-3-{5-(4-fluorophenyl)-1-methyl-1H-pyrazol-4-yl}acrylamide] came in with a melting point of 210 to 211 °C.

Take `Cn1ncc(/C=C/C(=O)Nc2ccc(CC(C)(C)C)cc2)c1-c1ccc(F)cc1` [Example 105, (2E)-3-[5-(4-Fluorophenyl)-1-methyl-1H-pyrazol-4-yl]-N-(4-neopentylphenyl)acrylamide]: the melting point lay in the range of 150 to 151 °C. For the compound `Cc1nnc(Cc2ccc(NC(=O)/C=C/c3cnn(C)c3-c3ccc(F)cc3)cc2)o1` [Example 136, (2E)-3-[5-(4-fluorophenyl)-1-methyl-1H-pyrazol-4-yl]-N-{4-[(5-methyl-1,3,4-oxadiazol-2-yl)methyl]phenyl}acrylamide], the melting point fell in the range of 151 to 152 °C.

`CCOP(=O)(Cc1ccccc1NC(=O)/C=C/c1cnn(C)c1-c1ccc(F)cc1)OCC` displayed a melting point of 168 to 169 °C. In turn, `COP(=O)(Cc1ccc(NC(=O)/C=C/c2cncn2-c2ccc(F)cc2)cc1)OC` came in with a melting point of 108 to 109 °C. Compound `Cn1ncc(/C=C/C(=O)Nc2ccc3[nH]c(=O)oc3c2)c1-c1ccc(F)cc1` [Example 106, (2E)-3-[5-(4-Fluorophenyl)-1-methyl-1H-pyrazol-4-yl]-N-(2-oxo-2,3-dihydro-1,3-benzoxazol-6-yl)acrylamide] registered a melting point of more than 300 °C. `COP(=O)(Cc1ccc(NC(=O)/C=C/c2cnn(C)c2-c2ccc(Br)cc2)cc1)OC` had a melting point of 212 to 214 °C. In the case of `CCOP(=O)(Cc1ccc(NC(=O)/C=C/c2cnn(C)c2-c2ccccc2F)cc1)OCC`, the melting point was in the range of 238 to 240 °C. In turn, `Cn1ncc(/C=C/C(=O)Nc2ccc(C(=O)c3ccccc3)cc2)c1-c1ccc(F)cc1` [Example 205, (2E)-N-(4-Benzoylphenyl)-3-[5-(4-fluorophenyl)-1-methyl-1H-pyrazol-4-yl]acrylamide] had a melting point of 110 to 112 °C. Consider `CCOP(=O)(CCc1ccc(NC(=O)/C=C/c2cnn(C)c2-c2ccc(F)cc2)cc1)OCC`, for which the melting point lay in the range of 157 to 158 °C. The same measure for `CCc1nnc(CCc2ccc(NC(=O)/C=C/c3cnn(C)c3-c3ccc(F)cc3)cc2)o1` [Example 88, (2E)-N-{4-[2-(5-Ethyl-1,3,4-oxadiazol-2-yl)ethyl]phenyl}-3-[5-(4-fluorophenyl)-1-methyl-1H-pyrazol-4-yl]acrylamide]: 167 to 168 °C; for `Cn1nnnc1Cc1ccc(NC(=O)/C=C/c2cnn(C)c2-c2ccc(F)cc2)cc1` [Example 101, (2E)-3-[5-(4-Fluorophenyl)-1-methyl-1H-pyrazol-4-yl]-N-{4-[(1-methyl-1H-tetrazol-5-yl)methyl]phenyl}acrylamide]: 243 to 244 °C; for `Cn1ncc(/C=C/C(=O)Nc2ccc(Cc3nc4ccccc4[nH]3)cc2)c1-c1ccc(F)cc1` [Example 108, (2E)-N-[4-(1H-Benzimidazol-2-ylmethyl)phenyl]-3-[5-(4-fluorophenyl)-1-methyl-1H-pyrazol-4-yl]acrylamide]: more than 300 °C.

In the case of `CCOC(=O)c1csc(Cc2ccc(NC(=O)/C=C/c3cnn(C)c3-c3ccc(F)cc3)cc2)n1` [Example 126, Ethyl 2-[4-({(2E)-3-[5-(4-fluorophenyl)-1-methyl-1H-pyrazol-4-yl]prop-2-enoyl}amino)benzyl]-1,3-thiazole-4-carboxylate], the melting point was 189 to 190 °C.

As for `Cn1ncc(/C=C/C(=O)Nc2ccc(Cc3ccccn3)cc2)c1-c1ccc(F)cc1` [Example 96, (2E)-3-[5-(4-Fluorophenyl)-1-methyl-1H-pyrazol-4-yl]-N-[4-(pyridin-2-ylmethyl)phenyl]acrylamide], the melting point was 215 to 216 °C. `Cn1ncc(/C=C/C(=O)Nc2ccc(CC(C)(C)O)cc2)c1-c1ccc(F)cc1` [Example 114, (2E)-3-[5-(4-Fluorophenyl)-1-methyl-1H-pyrazol-4-yl]-N-[4-(2-hydroxy-2-methylpropyl)phenyl]acrylamide] came in with a melting point of 188 to 189 °C. Compound `CCOP(=O)(Cc1ccc(NC(=O)/C=C/c2cnn(C)c2-c2ccc(F)cc2)c(C)c1)OCC` came in with a melting point of 154 to 155 °C. As to `COc1ccc(-c2c(/C=C/C(=O)Nc3ccc(CP(=O)(OC)OC)cc3)cnn2C)cc1`, the melting point was in the range of 199 to 200 °C. As for `Cn1ncc(/C=C/C(=O)Nc2ccc(Cc3nnn[nH]3)cc2)c1-c1ccc(F)cc1` [Example 87, (2E)-3-[5-(4-Fluorophenyl)-1-methyl-1H-pyrazol-4-yl]-N-[4-(1H-tetrazol-5-ylmethyl)phenyl]acrylamide], the melting point fell in the range of 252 to 253 °C.

The compound `Cn1ncc(/C=C/C(=O)Nc2ccc(Cc3nc(C(=O)O)cs3)cc2)c1-c1ccc(F)cc1` [Example 131, 2-[4-({(2E)-3-[5-(4-fluorophenyl)-1-methyl-1H-pyrazol-4-yl]prop-2-enoyl}amino)benzyl]-1,3-thiazole-4-carboxylic acid] showed a melting point of 226 to 227 °C. The compound `COP(=O)(Cc1ccc(NC(=O)/C=C/c2cnn(C)c2-c2cccc(F)c2)cc1)OC` had a melting point of 224 to 226 °C. As to `Cn1ncc(/C=C/C(=O)Nc2ccc(Cc3ccccc3)cc2)c1-c1ccc(F)cc1` [Example 175, (2E)-N-(4-Benzylphenyl)-3-[5-(4-fluorophenyl)-1-methyl-1H-pyrazol-4-yl]acrylamide], the melting point fell in the range of 226 to 227 °C.
